The values below come from patent US20250154163A1, “Pyrimidinone-Containing 17-Beta-Hydroxysteroid Dehydrogenase Type 13 Inhibitors” (ENANTA PHARMACEUTICALS, INC., priority 2023, published 2025).

As usually defined, the IC50 is the point on the concentration scale where inhibition reaches its midpoint. A higher IC50 goes with weaker potency in that assay.

The target in this assay is T1, human HSD17β13 (stable HEK293T cell line overexpressing human HSD17β13) (Homo sapiens, UniProt Q7Z5P4).
T1 construct: expressed in transfected cells
T1 sequence (Q7Z5P4 20-300): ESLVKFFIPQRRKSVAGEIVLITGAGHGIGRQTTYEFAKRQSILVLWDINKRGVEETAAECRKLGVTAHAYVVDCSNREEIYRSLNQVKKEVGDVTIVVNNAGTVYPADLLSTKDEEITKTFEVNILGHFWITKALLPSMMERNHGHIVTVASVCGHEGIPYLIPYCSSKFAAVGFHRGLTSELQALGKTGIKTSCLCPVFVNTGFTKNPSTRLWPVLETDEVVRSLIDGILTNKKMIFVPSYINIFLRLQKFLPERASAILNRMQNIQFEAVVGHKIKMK
Kind of assay: HSD17β13 inhibitor cell-based screening assay (conversion of estradiol-d2 to estrone-d2 by RF-MS). The conditions noted are these: conversion of estradiol-d2 to estrone-d2 after 24 hours. As to the method: The purpose of this cell-based assay is to determine the cellular efficacy (IC50) of HSD17β13 inhibitors in a stable HEK293 T cell line overexpressing human HSD17β13. The assay measures by Rapid Fire mass-spectrometry (RF-MS) the conversion of estradiol-d2 to estrone-d2. Cytotoxicity was also assessed via luminescent signal generated by the ATPlite viability assay reagent. To screen compounds for HSD17013 inhibition, black 384-well plates were seeded with 1000× concentration of compounds in a 9-point 1:3 dilution curve (final top concentration of 10 μM) as well as 1000× concentration of 17β-estradiol-d2 (5 μM final concentration) added to all wells. HEK293T cells stably overexpressing human HSD17013 and the parent HEK293T cell lines were then seeded in the plates on top of the compounds and substrate in MEM media containing 1% charcoal/dextran-treated FBS. Supernatant is collected and immediately frozen after 24 hours of incubation, and conversion of estradiol-d2 to estrone-d2 is measured at Pure Honey by RF-MS. The remaining media in the plate was removed from the wells and replaced with ATPlite viability assay reagent. Luminescent signal from the ATPlite reagent was measured on the Envision plate reader. 10 μL of 10 mM compounds stocks (1000×) dissolved in DMSO were pipetted into the appropriate wells on the 384 LDV plate (Labcyte; cat. no.: LP-0200) and the appropriate volumes of DMSO solvent were included onto an intermediate plate to further dilute the compound stocks to complete the 9-pt dose curve (final top concentration of 10 μM). 10 μL per well of 5 mM estradiol-d2 (1000×) (Cayman; item no.: 9002846) (5 μM final concentration) dissolved in DMSO was seeded into the appropriate number of wells on the same source plate as the compounds. The Echo 650 (Labcyte) was used for compound dilutions and dispensing both the compounds and the substrate onto a dry 384-well black assay plate (Falcon/Corning; cat. no.:353962). Afterwards, cells were immediately counted and seeded onto the plate. Cells were cultured for expansion in EMEM (ATCC; cat. no.: 30-2003)+10% FBS (Hyclone; cat. no.: SH3007003)+1×PenStrep (Gibco; cat. no.: 15140-122). All media for stable cell line overexpressing HSD17013 also included […] zeocin (Invitrogen; cat. no.: 46-0509) for selection. To prepare cells for seeding into the 384-well assay plate, cells were trypsinized for 3 minutes in the incubator. The Trypsin-EDTA (0.25%) (Gibco; cat. no.: 25200056) was neutralized with EMEM complete culture medium warmed to 37° C. Cells were then centrifugated at 300×g for 5 minutes at room temperature. The cell pellet was resuspended in phenol red-free MEM (Gibco; cat. no.: 51200-038)+1% charcoal/dextran-treated FBS (Hyclone; cat. no.: SH3006803) and 1×PenStrep warmed to 37° C. Cells were then counted using the TC20 automated cell-counter (Bio-Rad) and disposable duel chamber counting slides (Bio-Rad; cat. no.: 1450016) for a cell density of 1.5E5 cells/mL to then seed into the assay plate at 7.5E3 cells/well with 50 μL of media per well. Prior to the 24-hour time point, a solution of 1% formic acid (10×) (Honeywell; cat. no.: 94318) in MEM phenol red-free MEM+1% charcoal/dextran-treated FBS and 1×PenStrep was made. ATPlite luminescent ATP detection reagent (PerkinElmer; cat. no.: 6016739) was prepared according to the manufacturer's instructions. A new 384-well Falcon plate (collection plate) was seeded with 2 μL per well of 10× formic acid and then 18 μL of cell supernatant was added onto the formic acid, resulting in a 20 μL per well solution of 0.1% formic acid (1×) in supernatant. The plate of collected supernatant was immediately frozen on dry ice before being stored at −80° C. The collection plate was shipped to Momentum Biotechnologies for analysis. The remaining supernatant in the assay plate was discarded and 25 μL of ATPlite reagent was added to each well. […]
On to `N#Cc1ccc(-c2nc3sc4c(O)c(Cl)ccc4c3c(=O)n2Cc2cnco2)c(C2CC2)c1` [Example 111, 4-(7-chloro-8-hydroxy-3-(oxazol-5-ylmethyl)-4-oxo-3,4-dihydrobenzo[4,5]thieno[2,3-d]pyrimidin-2-yl)-3-cyclopropylbenzonitrile], for which the half-maximal inhibitory concentration (IC50) was below 100 nM.
Regarding `CS(=O)(=O)c1cnc(-c2nc3sc4c(O)c(Cl)ccc4c3c(=O)n2Cc2cc(C(F)(F)F)no2)c(C2CC2)c1` [Example 112, 7-chloro-2-(3-cyclopropyl-5-(methylsulfonyl)pyridin-2-yl)-8-hydroxy-3-((3-(trifluoromethyl)isoxazol-5-yl)methyl)benzo[4,5]thieno[2,3-d]pyrimidin-4(3H)-one], the half-maximal inhibitory concentration (IC50) is below 100 nM.
Compound `N#Cc1ccc(-c2nc3sc4c(O)c(Cl)ccc4c3c(=O)n2Cc2ccc(C(F)(F)F)nc2)c(C2CC2)c1` [Example 113, 4-(7-chloro-8-hydroxy-4-oxo-3-((6-(trifluoromethyl)pyridin-3-yl)methyl)-3,4-dihydrobenzo[4,5]thieno[2,3-d]pyrimidin-2-yl)-3-cyclopropylbenzonitrile] returned an IC50 below 100 nM.
Then `N#Cc1ccc(-c2nc3sc4c(O)c(Cl)ccc4c3c(=O)n2Cc2cnc(C(F)(F)F)nc2)c(C2CC2)c1` [Example 114], with below 100 nM; and `N#Cc1cnc(-c2nc3sc4c(O)c(Cl)ccc4c3c(=O)n2Cc2cc(C(F)(F)F)no2)c(C2CC2)c1` [Example 115], with below 100 nM.
The same measure for `O=c1c2c(nc(-c3ncc(C(F)F)cc3C3CC3)n1Cc1cnc(C(F)(F)F)nc1)sc1c(O)c(Cl)ccc12` [Example 116, 7-chloro-2-(3-cyclopropyl-5-(difluoromethyl)pyridin-2-yl)-8-hydroxy-3-((2-(trifluoromethyl)pyrimidin-5-yl)methyl)benzo[4,5]thieno[2,3-d]pyrimidin-4(3H)-one]: below 100 nM; for `COc1cc(-c2nc3sc4c(O)c(Cl)ccc4c3c(=O)n2Cc2cnco2)c(C2CC2)cc1OC` [Example 118]: 100 to 500 nM; for `COc1ccc(-c2nc3sc4c(O)c(Cl)ccc4c3c(=O)n2Cc2cnco2)c(C2CCCC2)c1` [Example 121]: 100 to 500 nM.
Then `COc1ccc(-c2nc3sc4c(O)c(Cl)ccc4c3c(=O)n2Cc2cnco2)c(C)c1` [Example 124], with 100 to 500 nM.
With `C#CCn1c(-c2ccc(OC)cc2C2CC2)nc2sc3c(O)c(Cl)ccc3c2c1=O` [Example 126], the IC50 is 100 to 500 nM.
Then `CCn1c(=O)c(C)cn(CCCn2c(-c3ccc(OC)cc3C3CC3)nc3sc4c(O)c(Cl)ccc4c3c2=O)c1=O` [Example 127], with below 100 nM.
Then `COc1ccc(-c2nc3sc4c(O)c(Cl)ccc4c3c(=O)n2Cc2cnco2)c(C(C)(C)C)c1` [Example 128], with 500 to 1000 nM.
On to `COc1ccc(-c2nc3sc4c(O)c(Cl)ccc4c3c(=O)n2Cc2cn(C(F)F)nn2)c(C2CC2)c1` [Example 129], for which the half-maximal inhibitory concentration (IC50) was below 100 nM.
The same measure for `O=c1c2c(nc(-c3c(C4CC4)ccc(C(F)(F)F)c3F)n1Cc1cnco1)sc1c(O)c(Cl)ccc12` [Example 134]: below 100 nM; for `O=c1c2c(nc(-c3cc(C(F)(F)F)ccc3C3CC3)n1Cc1cnco1)sc1c(O)c(Cl)ccc12` [Example 136]: below 100 nM; for `O=c1c2c(nc(-c3cccc(C(F)(F)F)c3C3CC3)n1Cc1cnco1)sc1c(O)c(Cl)ccc12` [Example 139]: below 100 nM.
Regarding `O=c1c2c(nc(-c3ccc4cc[nH]c4c3C3CC3)n1Cc1cnco1)sc1c(O)c(Cl)ccc12` [Example 140], the IC50 was below 100 nM.
The same measure for `O=c1c2c(nc(-c3cc(F)c(C(F)F)cc3C3CC3)n1Cc1cnco1)sc1c(O)c(Cl)ccc12` [Example 141]: below 100 nM; for `Cn1ncc2cc(-c3nc4sc5c(O)c(Cl)ccc5c4c(=O)n3Cc3cnco3)c(C3CC3)cc21` [Example 142]: below 100 nM.
The same measure for `O=c1c2c(nc(-c3ccc4ccccc4c3C3CC3)n1Cc1cnco1)sc1c(O)c(Cl)ccc12` [Example 145]: below 100 nM.
The same measure for `COc1cccc(-c2nc3sc4c(O)c(Cl)ccc4c3c(=O)n2Cc2cnco2)c1C1CC1` [Example 146]: below 100 nM.
On to `CCn1c(=O)c(C)cn(CCn2c(-c3ccc(OC)cc3C3CC3)nc3sc4c(O)c(Cl)ccc4c3c2=O)c1=O` [Example 150], for which the 50% inhibitory concentration (IC50) was 500 to 1000 nM.
Then `COc1ccc(-c2nc3sc4c(O)c(Cl)ccc4c3c(=O)n2Cc2ccncc2)c(C2CC2)c1` [Example 151], with below 100 nM.
Then `COc1ccc(-c2nc3sc4c(O)c(Cl)ccc4c3c(=O)n2Cc2cccnc2)c(C2CC2)c1` [Example 152], with below 100 nM; and `COc1ccc(-c2nc3sc4c(O)c(Cl)ccc4c3c(=O)n2Cc2ccc(C(F)(F)F)nc2)c(C2CC2)c1` [Example 153], with below 100 nM.
The same measure for `COc1ccc(-c2nc3sc4c(O)c(Cl)ccc4c3c(=O)n2Cc2cncc(C(F)(F)F)c2)c(C2CC2)c1` [Example 154]: below 100 nM; for `COc1ccc(-c2nc3sc4c(O)c(Cl)ccc4c3c(=O)n2Cc2ccnc(C(F)(F)F)c2)c(C2CC2)c1` [Example 155]: below 100 nM; for `COc1ccc(-c2nc3sc4c(O)c(Cl)ccc4c3c(=O)n2Cc2ccnc(OC)c2)c(C2CC2)c1` [Example 156]: below 100 nM.
With `COc1ccc(C2=Nc3sc4c(O)c(Cl)ccc4c3C(=O)C2Cc2cc[nH]c(=O)c2)c(C2CC2)c1` (stereo not drawn) [Example 157], the half-maximal inhibitory concentration (IC50) lay in the range of 100 to 500 nM.
`O=c1c2c(nc(-c3sc4ccccc4c3C3CC3)n1Cc1cnco1)sc1c(O)c(Cl)ccc12` [Example 158] gave an IC50 below 100 nM.
The same measure for `O=c1c2c(nc(-c3ccc(C(F)F)cc3C3CC3)n1Cc1cnco1)sc1c(O)c(Cl)ccc12` [Example 159]: below 100 nM; for `COc1ccc(-c2nc3sc4c(O)c(Cl)ccc4c3c(=O)n2Cc2ccc(OC)nc2)c(C2CC2)c1` [Example 160]: below 100 nM; for `COc1ccc(C2=Nc3sc4c(O)c(Cl)ccc4c3C(=O)C2Cc2ccc(=O)[nH]c2)c(C2CC2)c1` (stereo not drawn) [Example 161]: below 100 nM.
`O=c1c2c(nc(-c3cc(F)c(F)cc3C3CC3)n1Cc1ccc(C(F)(F)F)nc1)sc1c(O)c(Cl)ccc12` [Example 162]: the concentration for half-maximal inhibition (IC50) was below 100 nM.
For the compound `O=c1c2c(nc(-c3cc(F)c(F)cc3C3CC3)n1Cc1cccnc1)sc1c(O)c(Cl)ccc12` [Example 163], the half-maximal inhibitory concentration (IC50) is below 100 nM.
The same measure for `Cn1ncc2cc(-c3nc4sc5c(O)c(Cl)ccc5c4c(=O)n3Cc3cc(C(F)(F)F)no3)c(C3CC3)cc21` [Example 164]: below 100 nM; for `O=c1c2c(nc(-c3cc(F)c(F)cc3C3CC3)n1Cc1cc(Br)no1)sc1c(O)c(Cl)ccc12` [Example 165]: below 100 nM; for `CS(=O)(=O)c1ccc(-c2nc3sc4c(O)c(Cl)ccc4c3c(=O)n2Cc2cccnc2)c(C2CC2)c1` [Example 166]: below 100 nM.
Then `Cn1ccc(Cn2c(-c3cc(F)c(F)cc3C3CC3)nc3sc4c(O)c(Cl)ccc4c3c2=O)cc1=O` [Example 167], with below 100 nM.
